According to ChEMBL document CHEMBL1201862, “PubChem BioAssay data set” (2004):
Calls of active or inactive are those of the source.

Experiments:
Estrogen receptor beta = Estrogen receptor beta (Homo sapiens, UniProt Q92731); assay: blockers of SRC-3 recruitment to ERβ – biochemical, ELISA, streptavidin-HRP readout, orthogonal assay, confirmation (AID 1060)
[1] = target: Intestinal-type alkaline phosphatase (Mus musculus, UniProt P24822); assay: PubChem AID 488785; assay type: functional
[2] = target: T1, Alkaline phosphatase, tissue-nonspecific isozyme (Homo sapiens, UniProt P05186); assay: TNAP enzyme inhibition by screening hits, dose response, selectivity assay for mouse IAP inhibitor project, biochemical, human TNAP, uHTS hits (AID 488906); assay type: functional
T1 sequence (P05186 whole entry): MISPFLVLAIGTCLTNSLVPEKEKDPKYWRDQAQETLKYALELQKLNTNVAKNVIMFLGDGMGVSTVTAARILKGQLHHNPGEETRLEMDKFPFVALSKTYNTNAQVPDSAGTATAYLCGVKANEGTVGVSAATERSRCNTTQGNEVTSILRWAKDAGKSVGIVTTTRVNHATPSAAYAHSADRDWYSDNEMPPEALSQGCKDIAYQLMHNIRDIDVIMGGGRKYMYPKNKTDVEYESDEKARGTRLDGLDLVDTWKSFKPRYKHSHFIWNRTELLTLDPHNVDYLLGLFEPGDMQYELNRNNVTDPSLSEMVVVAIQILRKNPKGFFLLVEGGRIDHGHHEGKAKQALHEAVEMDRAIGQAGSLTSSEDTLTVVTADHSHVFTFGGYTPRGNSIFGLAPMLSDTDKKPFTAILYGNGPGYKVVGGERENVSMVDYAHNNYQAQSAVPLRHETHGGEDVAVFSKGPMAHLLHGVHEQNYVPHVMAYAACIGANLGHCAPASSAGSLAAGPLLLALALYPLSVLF

[3] = target: Intestinal-type alkaline phosphatase (Homo sapiens, UniProt P09923); assay: inhibition of human intestinal alkaline phosphatase – biochemical, dose response (AID 488876); assay type: functional
Chain of Intestinal-type alkaline phosphatase (Homo sapiens, UniProt P09923) (P09923 whole entry, the tested form may be a part): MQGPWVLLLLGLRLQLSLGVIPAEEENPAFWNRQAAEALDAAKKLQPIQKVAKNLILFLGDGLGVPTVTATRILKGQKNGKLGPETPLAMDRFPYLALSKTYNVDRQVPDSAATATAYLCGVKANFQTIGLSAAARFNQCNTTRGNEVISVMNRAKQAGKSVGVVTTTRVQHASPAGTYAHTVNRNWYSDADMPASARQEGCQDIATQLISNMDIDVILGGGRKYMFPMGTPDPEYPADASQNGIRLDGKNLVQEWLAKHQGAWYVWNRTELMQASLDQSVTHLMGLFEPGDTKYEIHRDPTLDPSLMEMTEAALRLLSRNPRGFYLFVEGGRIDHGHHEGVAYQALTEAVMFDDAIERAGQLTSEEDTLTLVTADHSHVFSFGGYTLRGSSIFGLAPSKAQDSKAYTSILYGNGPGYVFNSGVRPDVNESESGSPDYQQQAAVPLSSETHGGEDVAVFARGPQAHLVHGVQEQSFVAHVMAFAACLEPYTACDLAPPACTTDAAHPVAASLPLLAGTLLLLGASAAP

[4] = target: T2, Carboxy-terminal domain RNA polymerase II polypeptide A small phosphatase 1 (Homo sapiens, UniProt Q9GZU7); assay: CTDSP1 inhibitors, concentration-response, biochemical, absorbance readout, ultra-high-throughput screen actives (AID 540297); assay type: functional
T2 sequence (Q9GZU7 whole entry): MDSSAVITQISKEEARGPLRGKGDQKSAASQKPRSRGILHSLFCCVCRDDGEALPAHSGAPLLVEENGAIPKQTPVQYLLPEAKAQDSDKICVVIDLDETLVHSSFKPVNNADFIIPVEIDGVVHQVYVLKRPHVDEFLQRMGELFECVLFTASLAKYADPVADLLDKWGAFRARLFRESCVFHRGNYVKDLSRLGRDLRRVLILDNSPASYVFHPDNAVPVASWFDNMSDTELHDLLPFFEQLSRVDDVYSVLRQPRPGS

[5] = NIH-3T3 fibroblast cytotoxicity, dose response, cytotoxicity control, cell-based, fluorescence, Alamar Blue, secondary assay (AID 2327); assay type: functional;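 further: NIH-3T3 mouse fibroblasts cultured with fluconazole at 8 µg/mL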
[6] = fluconazole-exposed Candida albicans growth modulators – fluorescence, retest, confirmation (AID 2467); assay type: functional, cell-based
Exodeoxyribonuclease V = Exodeoxyribonuclease V (Escherichia coli (strain K12), UniProt P04993+P07648+P08394); assay: RecBCD inhibition via phage-restricted bacterial growth – absorbance, V66 E. coli, mutant T4 phage, counter-screen for AddAB inhibitor project, dose response (AID 492957); assay type: functional, cell-based, Escherichia coli str. K-12 substr. MG1655
Chain of Exodeoxyribonuclease V (P04993 whole entry): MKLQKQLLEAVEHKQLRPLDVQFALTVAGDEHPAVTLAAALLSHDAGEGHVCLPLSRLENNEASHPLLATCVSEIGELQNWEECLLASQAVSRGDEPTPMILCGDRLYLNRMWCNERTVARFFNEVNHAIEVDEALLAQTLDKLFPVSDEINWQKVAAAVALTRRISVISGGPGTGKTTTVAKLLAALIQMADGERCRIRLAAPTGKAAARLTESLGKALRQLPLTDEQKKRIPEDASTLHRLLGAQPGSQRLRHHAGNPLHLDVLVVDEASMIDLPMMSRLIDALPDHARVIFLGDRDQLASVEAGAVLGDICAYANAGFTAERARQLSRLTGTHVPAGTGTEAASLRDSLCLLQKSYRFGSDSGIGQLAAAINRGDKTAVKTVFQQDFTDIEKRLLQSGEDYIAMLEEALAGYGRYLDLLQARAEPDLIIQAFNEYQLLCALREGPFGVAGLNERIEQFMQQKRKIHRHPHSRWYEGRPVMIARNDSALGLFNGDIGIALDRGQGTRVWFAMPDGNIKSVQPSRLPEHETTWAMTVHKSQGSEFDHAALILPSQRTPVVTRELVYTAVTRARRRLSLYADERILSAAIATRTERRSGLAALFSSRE
Chain of Exodeoxyribonuclease V (P07648 whole entry): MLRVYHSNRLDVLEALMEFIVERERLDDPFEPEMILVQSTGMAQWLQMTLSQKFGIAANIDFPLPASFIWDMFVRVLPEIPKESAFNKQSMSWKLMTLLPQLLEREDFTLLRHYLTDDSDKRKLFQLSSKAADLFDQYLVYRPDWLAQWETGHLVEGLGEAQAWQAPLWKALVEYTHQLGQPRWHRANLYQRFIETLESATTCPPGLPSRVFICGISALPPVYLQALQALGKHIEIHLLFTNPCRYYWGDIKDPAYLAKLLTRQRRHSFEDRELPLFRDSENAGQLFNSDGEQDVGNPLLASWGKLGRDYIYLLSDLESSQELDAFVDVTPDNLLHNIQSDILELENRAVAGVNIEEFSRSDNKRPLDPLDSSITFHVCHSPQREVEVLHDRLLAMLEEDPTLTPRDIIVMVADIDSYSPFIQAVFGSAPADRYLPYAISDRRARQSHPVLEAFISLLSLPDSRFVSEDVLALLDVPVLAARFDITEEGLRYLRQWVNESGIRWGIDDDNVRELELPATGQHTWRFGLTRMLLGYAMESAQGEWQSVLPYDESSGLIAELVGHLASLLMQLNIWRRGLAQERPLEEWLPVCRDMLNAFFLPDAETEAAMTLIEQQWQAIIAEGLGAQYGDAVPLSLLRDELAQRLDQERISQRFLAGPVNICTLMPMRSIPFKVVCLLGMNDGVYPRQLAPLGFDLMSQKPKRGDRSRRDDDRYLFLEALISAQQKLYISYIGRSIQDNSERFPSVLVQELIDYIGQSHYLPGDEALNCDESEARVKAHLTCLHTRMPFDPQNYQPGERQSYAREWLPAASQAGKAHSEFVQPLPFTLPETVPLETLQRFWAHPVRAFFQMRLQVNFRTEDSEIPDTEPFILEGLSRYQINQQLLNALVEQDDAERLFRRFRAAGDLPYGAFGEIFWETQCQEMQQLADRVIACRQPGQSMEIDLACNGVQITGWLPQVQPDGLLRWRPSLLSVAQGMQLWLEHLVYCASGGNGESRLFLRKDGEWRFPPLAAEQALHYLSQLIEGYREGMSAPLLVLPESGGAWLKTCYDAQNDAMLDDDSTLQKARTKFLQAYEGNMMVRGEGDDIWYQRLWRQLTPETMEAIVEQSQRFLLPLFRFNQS
Chain of Exodeoxyribonuclease V (P08394 whole entry): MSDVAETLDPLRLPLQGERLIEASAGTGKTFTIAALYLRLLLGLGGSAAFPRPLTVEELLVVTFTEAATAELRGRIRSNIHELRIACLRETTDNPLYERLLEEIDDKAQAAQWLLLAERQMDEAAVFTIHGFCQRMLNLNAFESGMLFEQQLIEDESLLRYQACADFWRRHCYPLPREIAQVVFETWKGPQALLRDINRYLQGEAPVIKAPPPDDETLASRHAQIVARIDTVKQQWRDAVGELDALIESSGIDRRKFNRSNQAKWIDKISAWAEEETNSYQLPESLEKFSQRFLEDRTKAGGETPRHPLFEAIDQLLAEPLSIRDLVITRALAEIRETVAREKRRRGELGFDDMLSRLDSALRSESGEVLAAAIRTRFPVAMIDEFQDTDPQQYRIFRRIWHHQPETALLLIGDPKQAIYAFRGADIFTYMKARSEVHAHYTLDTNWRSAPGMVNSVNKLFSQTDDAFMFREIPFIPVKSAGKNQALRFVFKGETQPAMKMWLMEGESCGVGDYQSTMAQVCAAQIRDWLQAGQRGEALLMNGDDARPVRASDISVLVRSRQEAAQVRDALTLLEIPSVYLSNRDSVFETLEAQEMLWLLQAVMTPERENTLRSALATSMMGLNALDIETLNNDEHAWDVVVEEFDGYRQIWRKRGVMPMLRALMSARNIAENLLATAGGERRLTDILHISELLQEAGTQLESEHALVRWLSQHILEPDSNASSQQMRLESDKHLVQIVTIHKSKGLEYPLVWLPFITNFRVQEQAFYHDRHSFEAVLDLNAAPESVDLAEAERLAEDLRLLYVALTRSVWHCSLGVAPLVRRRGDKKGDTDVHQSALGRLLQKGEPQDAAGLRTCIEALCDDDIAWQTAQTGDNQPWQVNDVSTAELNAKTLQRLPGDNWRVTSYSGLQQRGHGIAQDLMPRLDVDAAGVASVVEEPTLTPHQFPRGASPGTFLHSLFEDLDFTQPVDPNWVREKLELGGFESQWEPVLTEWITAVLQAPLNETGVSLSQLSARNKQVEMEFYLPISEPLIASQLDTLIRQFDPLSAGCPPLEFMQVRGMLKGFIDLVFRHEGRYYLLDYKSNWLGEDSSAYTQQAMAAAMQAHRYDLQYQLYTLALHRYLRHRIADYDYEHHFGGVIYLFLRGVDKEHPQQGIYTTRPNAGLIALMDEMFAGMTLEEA

[7] = Luminescence Cell-Based Dose Retest to Confirm Inhibitors of Cancer Stem Cells. [Related pubchem assays (depositor defined):AID2717, AID2721]; assay type: functional; conditions: Homo sapiens
[8] = Counterscreen for AddAB inhibitors: absorbance-based bacterial cell-based high throughput dose response assay for inhibitors of bacterial viability. [Related pubchem assays (depositor defined):AID435030, AID449728, AID449731, AID488942, AID488955, AID488956]; assay type: functional
[9] = target: Heat shock protein HSP 90-alpha (Homo sapiens, UniProt P07900); assay type: functional, organism-based
H9c2 = assay: cells; assay type: functional, cell-based; conditions: Rattus norvegicus, H9c2, Myocardium;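 further: confirmatory concentration-response retest of ultra-high-throughput screening hits for modulation of myocardial damage; cell death induced by hydrogen peroxide oxidative stress; compound pretreatment for 60 min then peroxide exposure for 2 h; potency is for protecting the cells against peroxide damage rather than for killing them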
[10] = target: DNA dC->dU-editing enzyme APOBEC-3A (Homo sapiens, UniProt P31941); assay: Dose Response confirmation of small molecule APOBEC3A DNA Deaminase Inhibitors via a fluorescence-based single-stranded DNA deaminase assay. [Related pubchem assays (depositor defined):AID493011, AID493024]; assay type: functional
Chain of DNA dC->dU-editing enzyme APOBEC-3A (P31941 whole entry): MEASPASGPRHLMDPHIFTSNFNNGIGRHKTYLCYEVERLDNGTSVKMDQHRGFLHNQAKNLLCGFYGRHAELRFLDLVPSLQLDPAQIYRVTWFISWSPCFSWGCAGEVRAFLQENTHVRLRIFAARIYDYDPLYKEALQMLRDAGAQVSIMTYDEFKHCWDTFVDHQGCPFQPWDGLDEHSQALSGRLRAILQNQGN

[11] = target: DNA dC->dU-editing enzyme APOBEC-3G (Homo sapiens, UniProt Q9HC16); assay type: functional;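 further: Dose-response counterscreen measuring inhibition of APOBEC3G DNA deaminase activity, run while confirming APOBEC3A inhibitors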
Chain of DNA dC->dU-editing enzyme APOBEC-3G (Q9HC16 whole entry): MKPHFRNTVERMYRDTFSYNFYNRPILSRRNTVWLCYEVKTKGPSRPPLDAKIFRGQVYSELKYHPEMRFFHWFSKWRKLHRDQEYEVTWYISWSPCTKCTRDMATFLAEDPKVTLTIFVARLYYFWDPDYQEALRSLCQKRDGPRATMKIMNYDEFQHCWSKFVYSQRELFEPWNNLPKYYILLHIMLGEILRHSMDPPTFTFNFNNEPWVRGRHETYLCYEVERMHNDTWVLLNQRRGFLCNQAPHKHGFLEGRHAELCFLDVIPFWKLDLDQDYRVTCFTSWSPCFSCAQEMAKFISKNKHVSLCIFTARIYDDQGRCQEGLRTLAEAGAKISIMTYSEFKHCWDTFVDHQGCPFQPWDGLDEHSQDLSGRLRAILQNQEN

Chain of Estrogen receptor beta (Q92731 whole entry): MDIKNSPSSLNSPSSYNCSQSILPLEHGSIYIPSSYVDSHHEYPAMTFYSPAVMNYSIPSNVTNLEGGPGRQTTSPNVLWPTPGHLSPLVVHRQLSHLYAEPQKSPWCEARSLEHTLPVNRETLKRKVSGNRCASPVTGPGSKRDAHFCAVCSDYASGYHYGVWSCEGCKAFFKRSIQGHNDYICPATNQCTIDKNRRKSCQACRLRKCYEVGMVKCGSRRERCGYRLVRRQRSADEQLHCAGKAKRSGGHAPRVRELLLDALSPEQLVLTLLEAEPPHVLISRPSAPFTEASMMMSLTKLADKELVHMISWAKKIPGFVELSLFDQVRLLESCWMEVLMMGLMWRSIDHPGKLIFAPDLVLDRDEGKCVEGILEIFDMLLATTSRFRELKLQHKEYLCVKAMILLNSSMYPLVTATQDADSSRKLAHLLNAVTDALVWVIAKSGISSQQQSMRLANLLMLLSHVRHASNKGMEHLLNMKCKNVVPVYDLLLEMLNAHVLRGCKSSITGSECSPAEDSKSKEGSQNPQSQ

CCOc1ccccc1N1CCN(S(=O)(=O)c2ccc3c4c(cccc24)C(=O)N3)CC1
IC50 (Estrogen receptor beta): 9.19 µM (not active)
IC50 [1]: 7.13 µM (active)
IC50 [2]: 81.2 µM (active)
IC50 [3]: > 100 µM (inactive)
IC50 [4]: 7.47 µM (active)

O=C1c2ccccc2NC(c2ccc(-c3ccc(Br)cc3)o2)N1O (centres undefined)
EC50 [5]: > 150 µM (inconclusive)
EC50 [6]: > 38 µM (not active)
IC50 (Exodeoxyribonuclease V): > 119 µM (inactive)
AC50 [7]: 4.35 µM (active)
IC50 [8]: > 119 µM (inactive)
AC50 [9]: 6.74 µM (active)
IC50 (H9c2): > 79 µM (inactive)

CCc1nc(-c2ccc(C)nc2OC)no1
IC50 [10]: 3.49 µM (active)
IC50 [11]: 4.74 µM (active)
